The record followed here is patent publication US11795169B2, “MAP4K4 inhibitors” (IMPERIAL COLLEGE INNOVATIONS LIMITED, priority 2017, dated 2023).

Where two headings read alike, the source gives them in different places.

Data set [1] addresses FLT3 (Homo sapiens (Human), UniProt P36888). Description: Kinase selectivity panel: FLT3. The format is biochemical. The following applies: for IC50: read-out: pIC50 FLT3 (converted). The text has this: (§1) Compounds of the present invention were screened for their inhibitory activity against MAP4K4, versus selected off-target hits found with early members of this chemical series. MAP4K4 kinase activity was monitored using the CisBio HTRF Transcreener ADP assay, acompetitive immunoassay with a reproducible Z′>0.6. In the detection step, endogenous ADP and d2-labeled ADP compete for binding an anti-ADP monoclonal antibody labelled with Eu^3+ cryptate. A ratiometric fluorescent read-out is used at 665 and 620 nm. […] Assays were run in Greiner low volume plates with a final reaction volume of 10 μl. The MAP4K4 inhibition data are provided in Table 33 below for selected compounds of the present invention. The data has been categorised based on the IC50 value of the compound as “A”, “B” or “C”.
(§2) The data in Table 34 also provides the fold selectivity of the two compounds in favour of MAP4K4 over the tested kinase. The fold selectivity is indicated in parenthesis.

For data set [2], the target named is MLK1/MAP3K9 (Homo sapiens (Human), UniProt P80192). Put plainly: Kinase selectivity panel: MLK1/MAP3K9. The format is biochemical. The following applies: for IC50: read-out: pIC50 MLK1/MAP3K9 (converted).
From the text: as §1, §2

The target of data set [3] is MLK3/MAP3K11 (Homo sapiens (Human), UniProt Q16584). Description: Kinase selectivity panel: MLK3/MAP3K11. The format is biochemical. The following applies: for IC50: read-out: pIC50 MLK3/MAP3K11 (converted).
From the text: as §1, §2

Data set [4] has as its target Aurora B (Homo sapiens (Human), UniProt Q96GD4). Put plainly: Kinase selectivity panel: Aurora B. The format is biochemical. The following applies: for IC50: read-out: pIC50 Aurora B (converted).
From the text: as §1, §2

The target of data set [5] is KHS/MAP4K5 (Homo sapiens (Human), UniProt Q9Y4K4). Description: Kinase selectivity panel: KHS/MAP4K5. The following applies: for IC50: read-out: pIC50 KHS/MAP4K5 (converted). The format is biochemical.
From the text: as §1, §2

In data set [6] the test system is NUAK. Put plainly: Kinase selectivity panel: NUAK. Type of data set: biochemical. The method, then:
(§3) In the detection step, endogenous ADP and d2-labeled ADP compete for binding an anti-ADP monoclonal antibody labelled with Eu^3+ cryptate. […] Assays were run in Greiner low volume plates with a final reaction volume of 10 μl.
(§4) The fold selectivity is indicated in parenthesis.

For data set [7], the target named is GCK/MAP4K2 (Homo sapiens (Human), UniProt Q12851). Description: Kinase selectivity panel: GCK/MAP4K2. Type of data set: biochemical. The following applies: for IC50: read-out: pIC50 GCK/MAP4K2 (converted).
GCK/MAP4K2, sequence (Q12851 whole entry): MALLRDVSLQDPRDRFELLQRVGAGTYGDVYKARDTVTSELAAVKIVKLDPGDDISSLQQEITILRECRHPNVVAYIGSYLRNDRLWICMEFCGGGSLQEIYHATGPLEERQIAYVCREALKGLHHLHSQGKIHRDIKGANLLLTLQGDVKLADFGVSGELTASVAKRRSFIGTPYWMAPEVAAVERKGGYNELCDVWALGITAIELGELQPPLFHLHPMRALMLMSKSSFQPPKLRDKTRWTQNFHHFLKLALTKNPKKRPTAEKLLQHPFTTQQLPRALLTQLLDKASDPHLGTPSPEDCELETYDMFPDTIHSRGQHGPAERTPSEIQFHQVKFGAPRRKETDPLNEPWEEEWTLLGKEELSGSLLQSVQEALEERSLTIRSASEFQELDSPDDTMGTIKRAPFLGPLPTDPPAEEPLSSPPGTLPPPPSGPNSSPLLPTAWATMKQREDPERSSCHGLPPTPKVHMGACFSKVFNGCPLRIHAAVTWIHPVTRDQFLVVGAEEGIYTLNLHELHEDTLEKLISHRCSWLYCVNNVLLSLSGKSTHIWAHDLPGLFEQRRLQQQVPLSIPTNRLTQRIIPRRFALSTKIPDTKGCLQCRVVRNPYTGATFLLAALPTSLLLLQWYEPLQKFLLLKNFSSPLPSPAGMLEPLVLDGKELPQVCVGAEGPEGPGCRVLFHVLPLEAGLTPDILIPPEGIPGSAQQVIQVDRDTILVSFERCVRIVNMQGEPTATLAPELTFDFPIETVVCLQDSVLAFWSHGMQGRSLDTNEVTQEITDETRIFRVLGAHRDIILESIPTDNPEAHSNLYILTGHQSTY
From the text: as §1, §2

In data set [8] the target is GLK/MAP4K3 (Homo sapiens (Human), UniProt Q8IVH8). Description: Kinase selectivity panel: GLK/MAP4K3. The format is biochemical. The following applies: for IC50: read-out: pIC50 GLK/MAP4K3 (converted).
From the text: as §1, §2

The target of data set [9] is MINK1/MAP4K6 (Homo sapiens (Human), UniProt Q8N4C8). Put plainly: Kinase selectivity panel: MINK1/MAP4K6. Type of data set: biochemical. The following applies: read-out: pIC50 MINK1/MAP4K6 (converted).
From the text: as §1, §2

Data set [10] has as its system VEGFR. Description: Kinase selectivity panel: VEGFR. Type of data set: biochemical. The method, then:
as §3, §4

Data set [11] concerns the target GSK3β (Homo sapiens (Human), UniProt P49841). Put plainly: Kinase selectivity panel: GSK3β. The format is biochemical. The following applies: for IC50: read-out: pIC50 GSK3β (converted).
From the text: as §1, §2

Data set [12] concerns the target ABL1 (Homo sapiens (Human), UniProt P00519). Put plainly: Kinase selectivity panel: ABL1. Type of data set: biochemical. The following applies: for IC50: read-out: pIC50 ABL1 (converted).
From the text: as §1, §2

Data set [13] addresses TNIK/MAP4K7 (Homo sapiens (Human), UniProt Q9UKE5). Put plainly: Kinase selectivity panel: TNIK/MAP4K7. The format is biochemical. The following applies: read-out: pIC50 TNIK/MAP4K7 (converted).
From the text: as §1, §2

For data set [14], the target named is human MAP4K4 kinase domain (Homo sapiens (Human), UniProt O95819). Put plainly: MAP4K4 kinase activity, CisBio HTRF Transcreener ADP assay. Type of data set: biochemical.
From the text: as §1
Background: TR-FRET usually uses a lanthanide donor and a delayed reading to cut background.

In data set [15] the test system is iCell cardiomyocytes (hiPSC-CMs). Description: Human cardiac muscle cell death in iCell cardiomyocytes (DRAQ7 uptake). The format is cell-based. The following applies: 1.25 μM, lowest concentration tested. The text has this:
First, the expression of cardiomyocyte-specific markers and of MAP4K4 protein was validated (FIG. 5A, B). Two of three shRNAs directed against human MAP4K4 reduced expression >60%, with no extraneous effect on M/NK/MAP4K6 and TN/K/MAP4K7, the most closely related genes (FIG. 5C). Cell death was quantified by high-content analysis (FIG. 5D) as the loss of membrane integrity (DRAQ7 uptake) in successfully transduced (GFP^+) hiPSC-CMs (Myh6-RFP^+). Each of the two potent shRNAs conferred protection against H2O2: myocyte loss was reduced up to 50% (FIG. 5E).
To substantiate the hypothesis that pharmacological inhibition of MAP4K4 would confer resistance to cell death in human cardiomyocytes, cytoprotection was next assessed using hiPSC-CMs. […] Human cardiac muscle cell protection was substantiated in a second, independent line, CorV.4U cardiomyocytes, which are more highly enriched for ventricular myocytes.

Data set [16] has as its system CorV.4U cardiomyocytes (hiPSC-CMs). Description: Protection of CorV.4U cardiomyocytes from H2O2 or menadione (luminescent cell viability assay, human cardiac troponin assay). The format is cell-based. The following applies: 10 μM; luminescent cell viability assay, human cardiac troponin assay. The text has this:
To substantiate the hypothesis that pharmacological inhibition of MAP4K4 would confer resistance to cell death in human cardiomyocytes, cytoprotection was next assessed using hiPSC-CMs.

For data set [17] the following is noted: mouse, in vivo.
[18] abbreviates: ATP at Km (10 μM), 0.5 nM kinase domain, 2 h, read-out: MAP4K4.
[19] abbreviates: read-out: pIC50 MAP4K4 (converted).

TNIK/MAP4K7, sequence (Q9UKE5 whole entry): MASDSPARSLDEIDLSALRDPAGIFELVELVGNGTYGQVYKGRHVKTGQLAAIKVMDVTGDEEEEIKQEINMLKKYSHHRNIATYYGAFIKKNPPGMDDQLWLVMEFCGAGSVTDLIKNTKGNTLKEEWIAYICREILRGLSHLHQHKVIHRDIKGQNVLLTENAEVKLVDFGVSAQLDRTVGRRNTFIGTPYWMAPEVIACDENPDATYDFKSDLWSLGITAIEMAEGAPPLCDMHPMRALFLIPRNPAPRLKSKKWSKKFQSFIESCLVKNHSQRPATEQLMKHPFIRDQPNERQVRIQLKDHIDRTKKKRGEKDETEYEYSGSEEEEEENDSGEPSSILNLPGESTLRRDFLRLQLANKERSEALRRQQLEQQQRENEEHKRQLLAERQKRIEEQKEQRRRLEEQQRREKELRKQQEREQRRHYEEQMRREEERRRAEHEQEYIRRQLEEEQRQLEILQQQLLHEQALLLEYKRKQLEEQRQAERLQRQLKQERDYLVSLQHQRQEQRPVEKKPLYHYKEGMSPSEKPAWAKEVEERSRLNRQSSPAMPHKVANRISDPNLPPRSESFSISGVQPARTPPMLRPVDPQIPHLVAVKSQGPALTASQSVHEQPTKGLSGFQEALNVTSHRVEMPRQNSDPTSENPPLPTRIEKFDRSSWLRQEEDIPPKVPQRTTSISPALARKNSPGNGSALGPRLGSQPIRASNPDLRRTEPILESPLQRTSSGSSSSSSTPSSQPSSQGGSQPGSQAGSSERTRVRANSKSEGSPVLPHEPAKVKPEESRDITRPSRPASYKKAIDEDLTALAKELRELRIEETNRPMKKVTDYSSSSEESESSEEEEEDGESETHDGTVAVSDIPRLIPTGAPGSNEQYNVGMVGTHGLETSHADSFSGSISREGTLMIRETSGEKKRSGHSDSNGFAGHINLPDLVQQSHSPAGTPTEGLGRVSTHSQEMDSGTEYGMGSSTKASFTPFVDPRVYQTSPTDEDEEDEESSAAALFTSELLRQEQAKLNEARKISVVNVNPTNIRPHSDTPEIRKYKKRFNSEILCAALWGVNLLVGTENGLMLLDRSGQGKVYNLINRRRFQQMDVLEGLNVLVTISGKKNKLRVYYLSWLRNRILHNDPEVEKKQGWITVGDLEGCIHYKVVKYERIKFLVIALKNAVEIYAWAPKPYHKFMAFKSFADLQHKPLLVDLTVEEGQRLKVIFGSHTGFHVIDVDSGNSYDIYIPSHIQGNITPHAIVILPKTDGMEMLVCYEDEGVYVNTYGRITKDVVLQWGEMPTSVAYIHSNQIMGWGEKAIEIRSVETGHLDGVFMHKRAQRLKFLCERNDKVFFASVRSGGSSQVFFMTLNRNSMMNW
FLT3, sequence (P36888 27-993, species assumed): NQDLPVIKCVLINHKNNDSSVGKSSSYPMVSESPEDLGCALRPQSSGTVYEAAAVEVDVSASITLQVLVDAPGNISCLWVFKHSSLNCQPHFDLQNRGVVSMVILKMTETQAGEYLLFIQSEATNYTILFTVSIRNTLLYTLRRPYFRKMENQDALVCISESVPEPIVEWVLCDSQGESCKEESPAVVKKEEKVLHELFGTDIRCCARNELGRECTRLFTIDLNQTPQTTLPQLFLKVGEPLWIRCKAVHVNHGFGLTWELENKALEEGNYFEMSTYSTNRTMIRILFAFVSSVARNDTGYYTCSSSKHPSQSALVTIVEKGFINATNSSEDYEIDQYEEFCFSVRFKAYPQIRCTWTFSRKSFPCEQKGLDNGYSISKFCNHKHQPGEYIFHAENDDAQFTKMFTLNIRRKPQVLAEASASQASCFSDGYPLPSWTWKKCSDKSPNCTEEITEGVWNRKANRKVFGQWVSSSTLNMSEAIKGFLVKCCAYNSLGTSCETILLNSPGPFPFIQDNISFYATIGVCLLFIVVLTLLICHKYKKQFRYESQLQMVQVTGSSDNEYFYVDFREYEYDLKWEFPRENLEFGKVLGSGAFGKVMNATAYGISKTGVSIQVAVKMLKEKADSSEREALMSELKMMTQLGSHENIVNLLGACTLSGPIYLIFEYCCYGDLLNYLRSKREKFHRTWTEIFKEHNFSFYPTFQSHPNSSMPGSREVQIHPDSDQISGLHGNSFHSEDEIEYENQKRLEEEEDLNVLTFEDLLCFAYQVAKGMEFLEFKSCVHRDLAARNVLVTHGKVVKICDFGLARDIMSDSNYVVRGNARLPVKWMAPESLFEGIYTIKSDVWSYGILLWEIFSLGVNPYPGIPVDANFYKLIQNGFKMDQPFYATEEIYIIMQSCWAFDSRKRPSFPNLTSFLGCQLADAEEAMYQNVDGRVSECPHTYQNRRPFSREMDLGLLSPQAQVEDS
Aurora B, sequence (Q96GD4 whole entry): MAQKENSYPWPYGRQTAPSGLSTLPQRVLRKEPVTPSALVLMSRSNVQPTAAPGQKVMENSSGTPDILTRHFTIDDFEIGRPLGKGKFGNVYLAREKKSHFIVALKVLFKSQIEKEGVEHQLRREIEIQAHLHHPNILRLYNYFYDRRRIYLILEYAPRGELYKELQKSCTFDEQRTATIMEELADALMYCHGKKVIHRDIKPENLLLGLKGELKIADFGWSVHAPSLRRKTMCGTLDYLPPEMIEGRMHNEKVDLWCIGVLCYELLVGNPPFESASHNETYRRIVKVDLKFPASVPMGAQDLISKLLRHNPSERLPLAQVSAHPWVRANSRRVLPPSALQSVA
ABL1, sequence (P00519 whole entry, species assumed): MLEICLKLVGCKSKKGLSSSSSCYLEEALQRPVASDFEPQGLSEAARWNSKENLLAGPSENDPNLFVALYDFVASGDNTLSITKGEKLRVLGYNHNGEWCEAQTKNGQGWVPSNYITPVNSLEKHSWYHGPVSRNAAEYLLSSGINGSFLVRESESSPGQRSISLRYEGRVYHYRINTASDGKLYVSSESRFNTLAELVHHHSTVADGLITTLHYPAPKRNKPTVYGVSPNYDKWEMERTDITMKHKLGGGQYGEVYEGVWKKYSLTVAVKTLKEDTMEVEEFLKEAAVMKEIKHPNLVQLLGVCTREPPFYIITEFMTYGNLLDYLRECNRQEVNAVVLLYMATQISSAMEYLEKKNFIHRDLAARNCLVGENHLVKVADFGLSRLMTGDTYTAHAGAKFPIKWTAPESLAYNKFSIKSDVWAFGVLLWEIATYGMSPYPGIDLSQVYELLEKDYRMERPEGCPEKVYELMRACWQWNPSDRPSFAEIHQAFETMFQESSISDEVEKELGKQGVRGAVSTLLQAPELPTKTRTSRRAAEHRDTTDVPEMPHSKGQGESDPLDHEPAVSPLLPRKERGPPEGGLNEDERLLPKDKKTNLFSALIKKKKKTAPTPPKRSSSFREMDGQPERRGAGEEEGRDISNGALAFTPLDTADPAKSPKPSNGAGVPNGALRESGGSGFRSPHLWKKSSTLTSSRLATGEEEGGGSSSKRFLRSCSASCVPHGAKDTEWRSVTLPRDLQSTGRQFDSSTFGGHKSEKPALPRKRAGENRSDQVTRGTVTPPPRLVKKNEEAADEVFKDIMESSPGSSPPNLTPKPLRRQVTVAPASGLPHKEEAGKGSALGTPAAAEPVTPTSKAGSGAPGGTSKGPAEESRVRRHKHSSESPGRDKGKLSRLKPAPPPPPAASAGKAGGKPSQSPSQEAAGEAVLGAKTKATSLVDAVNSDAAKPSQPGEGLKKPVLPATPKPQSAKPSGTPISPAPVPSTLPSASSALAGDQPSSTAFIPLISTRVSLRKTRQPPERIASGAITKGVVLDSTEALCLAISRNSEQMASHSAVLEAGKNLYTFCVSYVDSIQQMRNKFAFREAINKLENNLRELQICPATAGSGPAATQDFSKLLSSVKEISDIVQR
GSK3β, sequence (P49841 whole entry, species assumed): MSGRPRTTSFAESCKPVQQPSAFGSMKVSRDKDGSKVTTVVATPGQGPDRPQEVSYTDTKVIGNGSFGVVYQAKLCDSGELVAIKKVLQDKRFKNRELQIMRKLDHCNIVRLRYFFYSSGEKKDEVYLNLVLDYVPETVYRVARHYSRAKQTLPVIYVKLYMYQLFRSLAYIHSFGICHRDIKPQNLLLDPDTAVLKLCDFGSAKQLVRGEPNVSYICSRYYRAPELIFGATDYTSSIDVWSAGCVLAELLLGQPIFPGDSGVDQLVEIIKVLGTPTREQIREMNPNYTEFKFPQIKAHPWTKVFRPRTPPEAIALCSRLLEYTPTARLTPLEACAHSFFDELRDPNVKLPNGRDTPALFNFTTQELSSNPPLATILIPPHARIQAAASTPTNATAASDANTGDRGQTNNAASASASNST

On to `O=C1NCCN1c1ccc(-c2cn(-c3ccccc3)c3nc[nH]c(=O)c23)cc1` [Ex-61], for which, in data set [1], the “fold selectivity for MAP4K4 over FLT3” value is listed as “(31622) fold”. Moreover, the IC50 in [1] was 31600 nM; in [2] it was 63.1 nM; in [3], 63.1 nM; in data set [4], 31600 nM; in data set [5] it was 1000 nM; in data set [7] it was 316 nM. Moreover, the IC50 in data set [8] was 31600 nM; in data set [9] it was 7.94 nM; in data set [11], 31600 nM; in data set [12], 794 nM; in [13], 5.01 nM; in data set [14] (setting [18]) it was at most 100 nM. Besides, the IC50 in data set [14] (setting [19]) was 1.58 nM. The “fold selectivity for MAP4K4 over MLK1/MAP3K9” value in [2] is “(63) fold”. Moreover, in data set [3], the “fold selectivity for MAP4K4 over MLK3/MAP3K11” value is reported as “(63) fold”. Further, the “fold selectivity for MAP4K4 over Aurora B” value in [4] was “(31622) fold”. Besides, the “fold selectivity for MAP4K4 over KHS/MAP4K5” value in data set [5] is listed as “(316) fold”. In addition, in data set [6], the “fold selectivity for MAP4K4 over NUAK” value is recorded as “(63) fold”. Further, in data set [6], the “pIC50 NUAK” value stood at 7.2. Also, the “fold selectivity for MAP4K4 over GCK/MAP4K2” value in [7] is reported as “(316) fold”. Moreover, the “fold selectivity for MAP4K4 over GLK/MAP4K3” value in data set [8] is on record as “(31622) fold”. Also, the “fold selectivity for MAP4K4 over VEGFR” value in data set [10] is reported as “(501) fold”. In addition, the “pIC50 VEGFR” value in [10] was determined as 6.3. Also, the “fold selectivity for MAP4K4 over GSK3β” value in data set [11] is reported as “(31622) fold”. Also, the “fold selectivity for MAP4K4 over ABL1” value in data set [12] is listed as “(794) fold”.
`COc1cccc(-c2cn(-c3ccccc3)c3nc[nH]c(=O)c23)c1` [Ex-22]: the “fold selectivity for MAP4K4 over FLT3” value in [1] is “(199) fold”. The IC50 is 31600 nM in data set [1]; 3980 nM in data set [2]; 31600 nM in data set [3]; 31600 nM in data set [4]; 437 nM in data set [5]; 7940 nM in data set [7]. Besides, the IC50 in [8] is 31600 nM; in [9], 6.61 nM; in data set [11] it was 31600 nM; in [12], 31600 nM; in [13], 200 nM; in data set [14] (setting [18]), 100 to 1000 nM. The IC50 in [14] (setting [19]) was 158 nM. The “fold selectivity for MAP4K4 over MLK1/MAP3K9” value in data set [2] was “(25) fold”. In data set [3], the “fold selectivity for MAP4K4 over MLK3/MAP3K11” value was “(199) fold”. In data set [4], the “fold selectivity for MAP4K4 over Aurora B” value was “(199) fold”. Also, the “fold selectivity for MAP4K4 over KHS/MAP4K5” value in data set [5] was “(199) fold”. In [7], the “fold selectivity for MAP4K4 over GCK/MAP4K2” value was “(50) fold”. For the same compound, the “fold selectivity for MAP4K4 over GLK/MAP4K3” value in data set [8] is “(199) fold”. The “fold selectivity for MAP4K4 over VEGFR” value in data set [10] is reported as “(79) fold”. In addition, the “pIC50 VEGFR” value in data set [10] is 4.9. Also, in data set [11], the “fold selectivity for MAP4K4 over GSK3β” value was “(199) fold”. Further, in data set [12], the “fold selectivity for MAP4K4 over ABL1” value is given as “(199) fold”.
With `O=c1[nH]cnc2c1c(-c1ccc(OCCO)cc1F)cn2-c1ccccc1` [Ex-56, 5-[2-Fluoro-4-(2-hydroxy-ethoxy)-phenyl]-7-phenyl-3,7-dihydro-pyrrolo[2,3-d]pyrimidin-4-one], the “fold selectivity for MAP4K4 over FLT3” value in data set [1] is “(3162) fold”. For the same compound, the IC50 in data set [1] was 15800 nM; in data set [2] it was 200 nM; in data set [3], 200 nM; in [4], 6310 nM; in data set [5], 1000 nM; in data set [7] it was 398 nM. In addition, the IC50 is 31600 nM in data set [8]; 7.94 nM in data set [9]; 2000 nM in data set [12]; 20 nM in data set [13]; at most 100 nM in data set [14] (setting [18]); 5.01 nM in data set [14] (setting [19]). Also, in data set [2], the “fold selectivity for MAP4K4 over MLK1/MAP3K9” value was “(39) fold”. For the same compound, the “fold selectivity for MAP4K4 over MLK3/MAP3K11” value in data set [3] is “(39) fold”. In addition, in data set [4], the “fold selectivity for MAP4K4 over Aurora B” value is given as “(1258) fold”. Besides, the “fold selectivity for MAP4K4 over KHS/MAP4K5” value in [5] was “(199) fold”. The “fold selectivity for MAP4K4 over NUAK” value in data set [6] is recorded as “(501) fold”. For the same compound, the “pIC50 NUAK” value in data set [6] is recorded as 5.6. For the same compound, the “fold selectivity for MAP4K4 over GCK/MAP4K2” value in [7] is given as “(79) fold”. The “fold selectivity for MAP4K4 over GLK/MAP4K3” value in data set [8] is reported as “(6309) fold”. Further, in [10], the “fold selectivity for MAP4K4 over VEGFR” value is “(6309) fold”. In addition, the “pIC50 VEGFR” value in [10] is given as 4.5. For the same compound, in data set [12], the “fold selectivity for MAP4K4 over ABL1” value was “(398) fold”.
`Oc1ncnc2c1c(-c1ccccc1)cn2-c1ccccc1` [F1386-0303, 5,7-diphenyl-7H-pyrrolo[2,3-d]pyrimidin-4-ol, reference compound]: the “pIC50 FLT3” value in [1] was 5.66. Also, the “pIC50 Aurora B” value in data set [4] was 4.88. The “reduction of human cardiac muscle cell death” value in data set [15] came to 50%. Further, the “protection from H2O2 or menadione” value in data set [16] is on record as “virtually complete”. Further, the “pIC50 GSK3β” value in data set [11] came to 4.57. The “pIC50 ABL1” value in data set [12] worked out at 4.52. In addition, in data set [17], the “clearance and oral exposure in mice (in words)” value is “rapidly cleared and accumulates only to low levels”. This compound also came in with an AUCinf in [17] (po, 50 mg/kg) of 2162. The “pIC50 MAP4K4” value in data set [14] was 7.46. Further, the IC50 in data set [14] (read-out: IC50 (MAP4K4)) was 34 nM.
